The source made the active and inactive calls. No cut-off for these calls is given here.
Assays:
[1] = molecular target: Ribosomal protein S6 kinase alpha-6 (Homo sapiens) (UniProt Q9UK32); settings: Compound concentration 1000.0 nM
[2] = molecular target: Ribosomal protein S6 kinase alpha-6 (Homo sapiens) (UniProt Q9UK32); settings: Compound concentration 1000.0 nM; remark: listed apart in the source
[3] = molecular target: Atypical kinase COQ8B, mitochondrial (Homo sapiens) (UniProt Q96D53); settings: Compound concentration 1000.0 nM
[4] = molecular target: NUAK family SNF1-like kinase 2 (Homo sapiens) (UniProt Q9H093); settings: Compound concentration 1000.0 nM
[5] = molecular target: Tyrosine-protein kinase JAK1 (Homo sapiens) (UniProt P23458); settings: Compound concentration 1000.0 nM
[6] = molecular target: Ephrin type-A receptor 6 (Homo sapiens) (UniProt Q9UF33); settings: Compound concentration 1000.0 nM
[7] = molecular target: Mitogen-activated protein kinase kinase kinase kinase 2 (Homo sapiens) (UniProt Q12851); settings: Compound concentration 1000.0 nM
[8] = molecular target: Wee1-like protein kinase (Homo sapiens) (UniProt P30291); settings: Compound concentration 1000.0 nM
[9] = molecular target: Serine/threonine-protein kinase RIO3 (Homo sapiens) (UniProt O14730); settings: Compound concentration 1000.0 nM
[10] = system: Tyrosine-protein kinase ABL1 (Homo sapiens), P00519 [M351T]; settings: Compound concentration 1000.0 nM
[11] = molecular target: Dual specificity mitogen-activated protein kinase kinase 1 (Homo sapiens) (UniProt Q02750); settings: Compound concentration 1000.0 nM
[12] = system: Tyrosine-protein kinase ABL1 (Homo sapiens), P00519 [Q252H]; settings: Compound concentration 1000.0 nM
[13] = molecular target: Serine/threonine-protein kinase PLK3 (Homo sapiens) (UniProt Q9H4B4); settings: Compound concentration 1000.0 nM
[14] = molecular target: Muscarinic acetylcholine receptor M2 (Homo sapiens) (UniProt P08172); settings: Compound concentration 10.0 uM
[15] = molecular target: Interleukin-1 receptor-associated kinase 3 (Homo sapiens) (UniProt Q9Y616); settings: Compound concentration 1000.0 nM
[16] = molecular target: Transient receptor potential cation channel subfamily M member 8 (Homo sapiens, UniProt Q7Z2W7); assay: Transients WS-12 activation
[17] = molecular target: Aurora kinase C (Homo sapiens) (UniProt Q9UQB9); settings: Compound concentration 1000.0 nM
[18] = molecular target: Serine/threonine-protein kinase PAK 6 (Homo sapiens) (UniProt Q9NQU5); settings: Compound concentration 1000.0 nM
[19] = molecular target: Serine/threonine-protein kinase PLK2 (Homo sapiens) (UniProt Q9NYY3); settings: Compound concentration 1000.0 nM
[20] = molecular target: SRSF protein kinase 1 (Homo sapiens) (UniProt Q96SB4); settings: Compound concentration 1000.0 nM
[21] = molecular target: D(3) dopamine receptor (Homo sapiens) (UniProt P35462); settings: Compound concentration 10.0 uM
[22] = molecular target: Mitogen-activated protein kinase kinase kinase 2 (Homo sapiens) (UniProt Q9Y2U5); settings: Compound concentration 1000.0 nM
[23] = molecular target: Serine/threonine-protein kinase ULK3 (Homo sapiens) (UniProt Q6PHR2); settings: Compound concentration 1000.0 nM
[24] = molecular target: 5-hydroxytryptamine receptor 2B (Homo sapiens) (UniProt P41595); assay: Serotonin 5-HT2b (human) CEREP ligand profiling; settings: Compound concentration 10.0 uM
[25] = molecular target: Serine/threonine-protein kinase PAK 2 (Homo sapiens) (UniProt Q13177); settings: Compound concentration 1000.0 nM
[26] = system: Proto-oncogene tyrosine-protein kinase receptor Ret (Homo sapiens), P07949 [V804L]; settings: Compound concentration 1000.0 nM
[27] = molecular target: Ribosomal protein S6 kinase alpha-3 (Homo sapiens) (UniProt P51812); settings: Compound concentration 1000.0 nM
[28] = molecular target: Receptor tyrosine-protein kinase erbB-2 (Homo sapiens) (UniProt P04626); settings: Compound concentration 1000.0 nM
[29] = molecular target: Serine/threonine-protein kinase ICK (Homo sapiens) (UniProt Q9UPZ9); settings: Compound concentration 1000.0 nM
[30] = molecular target: Serine/threonine-protein kinase 32C (Homo sapiens) (UniProt Q86UX6); settings: Compound concentration 1000.0 nM
[31] = molecular target: Sodium-dependent serotonin transporter (Homo sapiens) (UniProt P31645); settings: Compound concentration 10.0 uM
[32] = molecular target: Muscarinic acetylcholine receptor M3 (Homo sapiens) (UniProt P20309); assay: Muscarinic M3 (human) CEREP ligand profiling; settings: Compound concentration 10.0 uM
[33] = molecular target: Serine/threonine-protein kinase mTOR (Homo sapiens) (UniProt P42345); settings: Compound concentration 1000.0 nM
[34] = molecular target: Mitogen-activated protein kinase 7 (Homo sapiens) (UniProt Q13164); settings: Compound concentration 1000.0 nM
[35] = molecular target: Serine/threonine-protein kinase Chk2 (Homo sapiens) (UniProt O96017); settings: Compound concentration 1000.0 nM
[36] = molecular target: Ephrin type-A receptor 2 (Homo sapiens) (UniProt P29317); settings: Compound concentration 1000.0 nM
[37] = molecular target: Death-associated protein kinase 3 (Homo sapiens) (UniProt O43293); settings: Compound concentration 1000.0 nM
[38] = molecular target: Tyrosine-protein kinase TXK (Homo sapiens) (UniProt P42681); settings: Compound concentration 1000.0 nM
[39] = molecular target: Serine/threonine-protein kinase Nek10 (Homo sapiens) (UniProt Q6ZWH5); settings: Compound concentration 1000.0 nM
[40] = molecular target: Rho-associated protein kinase 1 (Homo sapiens) (UniProt Q13464); settings: Compound concentration 1000.0 nM
[41] = molecular target: Homeodomain-interacting protein kinase 4 (Homo sapiens) (UniProt Q8NE63); settings: Compound concentration 1000.0 nM
[42] = molecular target: Receptor-interacting serine/threonine-protein kinase 4 (Homo sapiens) (UniProt P57078); settings: Compound concentration 1000.0 nM
[43] = molecular target: Serine/threonine-protein kinase NLK (Homo sapiens) (UniProt Q9UBE8); settings: Compound concentration 1000.0 nM
[44] = molecular target: Serine/threonine-protein kinase 3 (Homo sapiens) (UniProt Q13188); settings: Compound concentration 1000.0 nM
[45] = molecular target: Dual specificity mitogen-activated protein kinase kinase 6 (Homo sapiens) (UniProt P52564); settings: Compound concentration 1000.0 nM

Ribosomal protein S6 kinase alpha-6 (Homo sapiens), sequence (Q9UK32 whole entry): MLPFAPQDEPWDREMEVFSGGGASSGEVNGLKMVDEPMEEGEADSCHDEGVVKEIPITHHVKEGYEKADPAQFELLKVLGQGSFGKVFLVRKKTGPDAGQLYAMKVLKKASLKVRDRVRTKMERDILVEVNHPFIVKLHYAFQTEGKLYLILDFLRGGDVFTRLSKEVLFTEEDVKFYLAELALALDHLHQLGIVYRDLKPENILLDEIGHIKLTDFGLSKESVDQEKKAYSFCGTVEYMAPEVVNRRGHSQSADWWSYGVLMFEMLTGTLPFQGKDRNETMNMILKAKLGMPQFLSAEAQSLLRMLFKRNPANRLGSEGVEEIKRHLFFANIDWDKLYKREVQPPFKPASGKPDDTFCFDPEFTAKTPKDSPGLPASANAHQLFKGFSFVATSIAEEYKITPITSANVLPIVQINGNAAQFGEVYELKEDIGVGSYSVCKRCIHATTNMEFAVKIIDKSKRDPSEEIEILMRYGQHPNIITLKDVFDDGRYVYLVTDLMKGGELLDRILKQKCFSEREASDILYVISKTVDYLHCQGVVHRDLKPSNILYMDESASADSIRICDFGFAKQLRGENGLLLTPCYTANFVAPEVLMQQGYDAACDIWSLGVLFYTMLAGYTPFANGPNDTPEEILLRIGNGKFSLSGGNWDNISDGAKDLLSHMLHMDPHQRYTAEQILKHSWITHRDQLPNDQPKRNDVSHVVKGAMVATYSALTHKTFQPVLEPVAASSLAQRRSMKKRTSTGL
5-hydroxytryptamine receptor 2B (Homo sapiens), sequence (P41595 whole entry): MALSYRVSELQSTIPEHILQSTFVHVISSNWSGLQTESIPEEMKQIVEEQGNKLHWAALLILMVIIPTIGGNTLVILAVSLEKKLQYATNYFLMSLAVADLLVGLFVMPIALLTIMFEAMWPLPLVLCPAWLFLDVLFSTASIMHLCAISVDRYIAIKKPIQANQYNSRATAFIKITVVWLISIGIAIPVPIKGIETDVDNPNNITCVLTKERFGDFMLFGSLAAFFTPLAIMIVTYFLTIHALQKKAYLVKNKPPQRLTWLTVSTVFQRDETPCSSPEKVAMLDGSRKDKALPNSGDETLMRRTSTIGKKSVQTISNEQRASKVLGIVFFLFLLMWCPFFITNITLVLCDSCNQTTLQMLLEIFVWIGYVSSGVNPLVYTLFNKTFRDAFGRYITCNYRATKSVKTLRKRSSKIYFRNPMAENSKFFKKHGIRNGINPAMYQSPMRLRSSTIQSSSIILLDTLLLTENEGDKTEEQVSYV
Dual specificity mitogen-activated protein kinase kinase 1 (Homo sapiens), sequence (Q02750 whole entry): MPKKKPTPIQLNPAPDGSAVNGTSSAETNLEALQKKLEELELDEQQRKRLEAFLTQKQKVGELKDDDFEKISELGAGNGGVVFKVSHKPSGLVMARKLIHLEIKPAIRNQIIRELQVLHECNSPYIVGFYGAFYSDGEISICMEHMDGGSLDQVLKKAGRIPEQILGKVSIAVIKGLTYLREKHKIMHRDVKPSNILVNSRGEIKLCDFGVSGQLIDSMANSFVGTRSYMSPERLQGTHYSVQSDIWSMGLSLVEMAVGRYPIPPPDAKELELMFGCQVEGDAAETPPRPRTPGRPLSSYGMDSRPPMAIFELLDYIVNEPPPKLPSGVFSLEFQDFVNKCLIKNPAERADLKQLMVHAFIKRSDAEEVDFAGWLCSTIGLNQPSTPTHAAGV
Receptor tyrosine-protein kinase erbB-2 (Homo sapiens), sequence (P04626 whole entry): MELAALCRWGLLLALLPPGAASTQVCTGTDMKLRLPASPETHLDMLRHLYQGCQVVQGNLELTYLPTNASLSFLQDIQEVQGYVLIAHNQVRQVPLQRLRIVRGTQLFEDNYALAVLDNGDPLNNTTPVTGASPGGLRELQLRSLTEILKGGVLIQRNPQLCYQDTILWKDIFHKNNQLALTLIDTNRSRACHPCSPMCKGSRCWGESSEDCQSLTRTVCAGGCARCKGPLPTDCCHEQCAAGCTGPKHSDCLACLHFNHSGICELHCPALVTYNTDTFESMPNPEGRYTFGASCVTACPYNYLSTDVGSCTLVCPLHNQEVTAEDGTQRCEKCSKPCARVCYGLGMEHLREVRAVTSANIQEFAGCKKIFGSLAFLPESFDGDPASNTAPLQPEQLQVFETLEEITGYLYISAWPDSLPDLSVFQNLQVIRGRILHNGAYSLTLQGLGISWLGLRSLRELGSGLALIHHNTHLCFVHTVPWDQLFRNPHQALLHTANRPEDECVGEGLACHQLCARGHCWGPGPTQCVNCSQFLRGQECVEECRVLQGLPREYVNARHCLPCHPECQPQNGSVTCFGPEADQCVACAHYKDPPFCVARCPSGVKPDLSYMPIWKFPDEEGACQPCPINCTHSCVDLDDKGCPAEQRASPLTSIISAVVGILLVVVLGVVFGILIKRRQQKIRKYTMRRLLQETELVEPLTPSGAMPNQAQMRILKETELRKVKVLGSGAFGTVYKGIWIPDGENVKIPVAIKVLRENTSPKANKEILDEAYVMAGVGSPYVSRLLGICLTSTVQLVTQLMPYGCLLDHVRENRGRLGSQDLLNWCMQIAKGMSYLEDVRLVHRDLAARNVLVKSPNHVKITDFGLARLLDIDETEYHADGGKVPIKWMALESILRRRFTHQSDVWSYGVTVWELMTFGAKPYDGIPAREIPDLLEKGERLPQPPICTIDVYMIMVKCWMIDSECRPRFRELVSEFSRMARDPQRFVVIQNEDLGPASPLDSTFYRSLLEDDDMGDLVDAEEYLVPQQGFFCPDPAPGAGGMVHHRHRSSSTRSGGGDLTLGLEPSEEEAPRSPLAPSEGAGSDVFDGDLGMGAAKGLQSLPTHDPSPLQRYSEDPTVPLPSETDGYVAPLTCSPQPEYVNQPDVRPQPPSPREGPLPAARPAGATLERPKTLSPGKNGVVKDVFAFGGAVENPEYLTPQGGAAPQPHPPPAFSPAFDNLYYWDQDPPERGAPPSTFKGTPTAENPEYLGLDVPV
Serine/threonine-protein kinase RIO3 (Homo sapiens), sequence (O14730 whole entry): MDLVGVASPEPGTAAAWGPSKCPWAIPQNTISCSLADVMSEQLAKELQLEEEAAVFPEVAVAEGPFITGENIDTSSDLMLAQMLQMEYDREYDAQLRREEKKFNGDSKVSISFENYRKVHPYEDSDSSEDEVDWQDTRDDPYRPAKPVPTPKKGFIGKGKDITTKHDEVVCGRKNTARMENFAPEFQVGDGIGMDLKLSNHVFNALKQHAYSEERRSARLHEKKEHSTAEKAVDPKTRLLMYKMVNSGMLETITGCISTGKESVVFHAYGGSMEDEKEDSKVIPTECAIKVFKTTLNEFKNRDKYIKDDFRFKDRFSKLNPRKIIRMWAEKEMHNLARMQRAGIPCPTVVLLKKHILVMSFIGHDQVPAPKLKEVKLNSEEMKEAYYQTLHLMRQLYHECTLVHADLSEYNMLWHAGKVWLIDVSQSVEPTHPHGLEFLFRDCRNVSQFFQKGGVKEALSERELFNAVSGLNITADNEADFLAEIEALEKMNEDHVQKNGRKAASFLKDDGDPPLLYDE
Proto-oncogene tyrosine-protein kinase receptor Ret (Homo sapiens), P07949 [V804L], sequence (P07949 whole entry V804L): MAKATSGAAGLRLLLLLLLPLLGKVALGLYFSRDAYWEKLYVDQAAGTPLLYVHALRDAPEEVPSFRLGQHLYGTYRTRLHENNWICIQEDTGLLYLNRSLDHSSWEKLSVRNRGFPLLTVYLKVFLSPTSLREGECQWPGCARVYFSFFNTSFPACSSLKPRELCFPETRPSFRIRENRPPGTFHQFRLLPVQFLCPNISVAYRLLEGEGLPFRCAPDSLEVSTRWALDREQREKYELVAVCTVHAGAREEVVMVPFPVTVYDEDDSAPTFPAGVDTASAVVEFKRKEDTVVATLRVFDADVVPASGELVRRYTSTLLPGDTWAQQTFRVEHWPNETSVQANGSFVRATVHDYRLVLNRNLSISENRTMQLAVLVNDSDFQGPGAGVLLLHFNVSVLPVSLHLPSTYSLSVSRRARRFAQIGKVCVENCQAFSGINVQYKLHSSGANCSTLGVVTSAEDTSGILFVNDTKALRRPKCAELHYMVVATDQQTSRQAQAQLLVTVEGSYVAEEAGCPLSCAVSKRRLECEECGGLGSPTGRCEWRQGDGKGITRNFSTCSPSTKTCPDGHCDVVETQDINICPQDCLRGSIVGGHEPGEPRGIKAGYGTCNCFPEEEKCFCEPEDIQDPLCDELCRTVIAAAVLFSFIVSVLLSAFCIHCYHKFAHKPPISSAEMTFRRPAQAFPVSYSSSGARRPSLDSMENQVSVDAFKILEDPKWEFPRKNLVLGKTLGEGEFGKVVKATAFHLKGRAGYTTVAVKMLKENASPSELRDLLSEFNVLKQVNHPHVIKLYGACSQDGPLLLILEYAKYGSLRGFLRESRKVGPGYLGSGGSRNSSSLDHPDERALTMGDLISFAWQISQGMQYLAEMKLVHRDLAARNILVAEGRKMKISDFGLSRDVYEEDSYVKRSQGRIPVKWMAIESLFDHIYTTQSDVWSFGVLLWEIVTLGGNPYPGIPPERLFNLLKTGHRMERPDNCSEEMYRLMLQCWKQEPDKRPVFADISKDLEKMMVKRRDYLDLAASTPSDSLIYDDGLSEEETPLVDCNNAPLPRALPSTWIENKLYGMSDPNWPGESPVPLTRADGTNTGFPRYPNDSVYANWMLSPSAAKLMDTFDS
Muscarinic acetylcholine receptor M2 (Homo sapiens), sequence (P08172 whole entry): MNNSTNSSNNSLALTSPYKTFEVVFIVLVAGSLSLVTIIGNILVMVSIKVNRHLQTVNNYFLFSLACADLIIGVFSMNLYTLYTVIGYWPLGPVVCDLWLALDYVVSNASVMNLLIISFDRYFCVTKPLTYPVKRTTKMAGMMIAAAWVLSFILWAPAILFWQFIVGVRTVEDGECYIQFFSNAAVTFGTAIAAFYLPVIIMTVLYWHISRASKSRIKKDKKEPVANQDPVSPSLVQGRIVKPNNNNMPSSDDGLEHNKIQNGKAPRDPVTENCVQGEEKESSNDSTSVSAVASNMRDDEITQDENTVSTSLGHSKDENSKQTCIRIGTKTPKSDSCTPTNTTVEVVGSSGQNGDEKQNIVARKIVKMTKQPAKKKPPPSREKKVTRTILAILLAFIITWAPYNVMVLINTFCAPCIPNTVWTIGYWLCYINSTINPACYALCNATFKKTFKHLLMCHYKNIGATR

What does the source list for `C[C@H](c1ccc(F)cc1)N(Cc1cccc(C(=O)O)c1)C(=O)c1cnc2ccccc2c1` [PF-05105679]?
residual activity [1]: 100%; residual activity [2]: 100%; residual activity [3]: 86%; residual activity [4]: 100%; residual activity [5]: 100%; residual activity [6]: 100%; residual activity [7]: 100%; residual activity [8]: 96%; residual activity [9]: 86%; residual activity [10]: 94%; residual activity [11]: 100%; residual activity [12]: 89%; residual activity [13]: 100%; inhibition [14]: 12.6%; residual activity [15]: 100%; IC50 [16]: 29.6 nM (active); residual activity [17]: 100%; residual activity [18]: 100%; residual activity [19]: 100%; residual activity [20]: 95%; inhibition [21]: -8.16%; residual activity [22]: 100%; residual activity [23]: 82%; inhibition [24]: 26%; residual activity [25]: 100%; residual activity [26]: 85%; residual activity [27]: 100%; residual activity [28]: 100%; residual activity [29]: 100%; residual activity [30]: 100%; inhibition [31]: 23.4%; inhibition [32]: 21%; residual activity [33]: 93%; residual activity [34]: 78%; residual activity [35]: 91%; residual activity [36]: 100%; residual activity [37]: 100%; residual activity [38]: 100%; residual activity [39]: 96%; residual activity [40]: 100%; residual activity [41]: 93%; residual activity [42]: 100%; residual activity [43]: 86%; residual activity [44]: 100%; residual activity [45]: 100%
